Source: patent US20220372014A1, “NEUROPROTECTIVE COMPOUNDS AND METHODS OF USE THEREOF” (The Johns Hopkins University, priority 2019, published 2022)

Key:
PAAN/MIF WT or variants = assay: Biolayer interferometry (ForteBio Octet) binding assay; design: species or system human
Excerpt: Purification of PAAN/MIF recombinant proteins. Human PAAN/MIF (NM_002415) cDNA and its variants were subcloned into pGEX-6β-1 vector (GE Healthcare) and mutants were generated using a QuikChange site-directed mutagenesis kit (Stratagene). The sequences were confirmed by automated DNA sequencing. The protein was expressed and purified from Escherichia coli by glutathione sepharose (GE Healthcare). The GST tag was subsequently proteolytically removed. GST protein was used as a negative control in the nuclease assay and PAAN/MIF proteins purified by FPLC using Superdex 200 10/300GL column (GE Healthcare, Life Sciences) were also used in the nuclease assays.
Biolayer interferometry assay. The dose-dependent binding of compound 121 for PAAN/MIF WT or PAAN/MIF variants were determined by a biolayer interferometry assay using Octet RED96 (ForteBio). See Guo et al. (2018) Nat. Chem. 11:254-63. All the proteins used in this assay were tagged with GST. Anti-GST biosensor tips (ForteBio) were used to immobilize the GST proteins after prewetting with 1X kinetic buffer (ForteBio). The equilibrated GST biosensors were loaded with PAAN/MIF WT or variants (25 μg/ml). Background binding controls were measured by sensors that were incubated in buffer without proteins. All assays were performed by a standard protocol in 96-well black plates (Greiner Bio) with a total volume of 200 μl per well. All the data were analyzed by Octet data analysis software.

pS6 kinase activity = assay: Immunoblot of pS6K, pS6 and p4E-BP1 levels in SH-SY5Y cells; format: cell-based; details: 0.5 or 1 μM, 3 h
Excerpt: FIGS. 14A-14G show the characterization of compound 121. […] Bars represent means±s.e.m. ***P<0.0005, two-way ANOVA followed by Tukey's post hoc test (n=4). […] Bars represent mean±s.e.m. ***P<0.0005, two-way ANOVA followed by Tukey's post hoc test (n=4). […] Bars represent means±s.e.m. **P<0.005, ***P<0.0005, one-way ANOVA followed by Tukey's post hoc test (n=3). […] Bar represent mean±s.e.m. ***P<0.0005, one-way ANOVA followed by Tukey's post hoc test (n=3). […] Quantification of inhibition of PARP-1 activity by compound 56, compound 121 and ABT-888 is shown. Graphs represent mean±s.e.m. ***P<0.0005, two-way ANOVA followed by Tukey's post hoc test (n=3). FIGS. 14F and 14G show Alamar blue cell viability assay from SH-SY5Y cells pre-incubated with either compound 56 or 121 in response to (14F) 0.5 μM staurosporine (STS) or (14G) from HT 22 cells incubated with 1 ng/ml of TNF-α with 50 μM z-VAD. Bars represent mean±s.e.m. ***P<0.0005, two-way ANOVA followed by Tukey's post hoc test (n=5).
Tissue lysate preparation and western blot analysis. […] Protein concentrations were determined using the BCA assay (Pierce) and samples were separated using SDS polyacrylamide gels and transferred onto nitrocellulose membranes. […]

COc1ccc(CC[C@H]2OC(=O)[C@@H]3CCCCN3C(=O)C(=O)C(C)(C)COC(=O)C=CCCN(C)C(=O)[C@@H]3CCCN3C(=O)[C@H](COC(C)(C)C)N(C)C(=O)C(c3ccccc3)NC(=O)[C@H](C)N(C)C(=O)COc3cc(F)cc2c3)cc1OC (mixture of isomers) [compound 121]
direct binding of PAAN/MIF WT and Y99A mutant (PAAN/MIF WT or variants): exhibited binding | direct binding of mutants L61A, N72A and 60-63A (PAAN/MIF WT or variants): remarkably decreased | rapamycin sensitive pS6 kinase activity (pS6 kinase activity): failed to inhibit
